Data: patent US12522634B2, “Cyclophilin inhibitors and uses thereof” (Farsight Medical Technology (Shanghai) Co., Ltd., priority 2020, dated 2026)
Read-outs that look alike come from different tables or passages of the source. Starred links: 1 amine or outer side, 2 acyl side, 3 side chain; linkers in the order of their positions; H or OH if unused. Non-standard residues stand in square brackets, D forms with d. Residues, ends and D or L forms follow the SMILES beside them. ξ: configuration not given here. NMeBmt(3-oxo) = C/C=C/C[C@@H](C)C(=O)[C@H](NC)C(=O)O; MeBmt = C/C=C/C[C@@H](C)[C@@H](O)[C@H](NC)C(=O)O; ξThr(3S) = C[C@H](O[*:3])C(N[*:1])C(=O)[*:2]; X1 = CN([C@H](OCCN1CCOCC1)C(=O)[*:2])[*:1]; X2 = CN(C)CCO[C@H](C(=O)[*:2])N(C)[*:1]; NMeL = CN[C@@H](CC(C)C)C(=O)O; NMeV = CN[C@H](C(=O)O)C(C)C; Nva = CCC[C@H](N)C(=O)O

Tests used:
permeabilized HepG2 = assay: Calcium retention capacity (CRC) assay in permeabilized HepG2; assay type: cell-based; details: Homo sapiens
Human CypA = Human CypA (Homo sapiens (Human), UniProt P62937); assay: Cyclophilin peptidyl-prolyl isomerase functional assay (PPIase), CypA; assay type: biochemical; details: human recombinant enzyme, 10° C.; read-out: Inhibition (Ki, nM) Human CypA
Human CypD = Human CypD (Homo sapiens (Human), UniProt P30405); assay: Cyclophilin peptidyl-prolyl isomerase functional assay (PPIase), CypD; assay type: biochemical; details: human recombinant enzyme, 10° C.; read-out: Inhibition (Ki, nM) Human CypD
[1] = biological target: recombinant Calcineurin (CaN) (Homo sapiens (Human), UniProt P62937+P63098+Q08209); assay: Calcineurin phosphatase inhibition assay with cyclophilin A; assay type: biochemical; details: RII phosphopeptide substrate, read-out: CaN Inhibition (IC50, nM) + CypA
[2] = biological target: recombinant Calcineurin (CaN) (Homo sapiens (Human), UniProt P63098+Q08209); assay: Calcineurin phosphatase inhibition assay without cyclophilin A; assay type: biochemical; details: RII phosphopeptide substrate, read-out: CaN Inhibition (IC50, nM) − CypA
[3] = permeabilized HepG2, area under the curve, read-out: Calcium Retention Capacity EC50

Human CypD, sequence (P30405 30-207): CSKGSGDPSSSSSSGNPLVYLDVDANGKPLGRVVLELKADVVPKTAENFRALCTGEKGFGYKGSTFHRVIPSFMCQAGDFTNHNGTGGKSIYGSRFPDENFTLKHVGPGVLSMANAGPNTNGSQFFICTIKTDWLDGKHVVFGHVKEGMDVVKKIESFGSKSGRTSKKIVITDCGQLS

| Structure (SMILES) | Ki (Human CypA) [nM] | Ki (Human CypD) [nM] | IC50 [1] [nM] | IC50 [2] [nM] | EC50 (permeabilized HepG2; [3]) [nM] | EC50 (permeabilized HepG2; HepG2, read-out: Calcium Retention Capacity EC50 (nM)) [nM] |
| --- | --- | --- | --- | --- | --- | --- |
| C/C=C/C[C@@H](C)[C@@H](O)[C@H]1C(=O)N[C@@H](CC)C(=O)N(C)[C@H](OCCN(C)C)C(=O)N(C)[C@@H](CC(C)C)C(=O)N[C@@H](C(C)C)C(=O)N(C)[C@@H](CC(C)C)C(=O)N[C@@H](C)C(=O)N[C@H](C)C(=O)N(C)[C@@H](CC(C)C)C(=O)N(C)[C@@H](CC(C)C)C(=O)N(C)[C@@H](C(C)C)C(=O)N1C [Compound 1, reference compound] |  |  |  |  |  | 916 |
| C/C=C/C[C@@H](C)[C@@H](O)[C@H]1C(=O)N[C@@H](CC)C(=O)N(C)[C@H](OCC/N=C/N(C)C)C(=O)N(C)[C@@H](CC(C)C)C(=O)N[C@@H](C(C)C)C(=O)N(C)[C@@H](CC(C)C)C(=O)N[C@@H](C)C(=O)N[C@H](C)C(=O)N(C)[C@@H](CC(C)C)C(=O)N(C)[C@@H](CC(C)C)C(=O)N(C)[C@@H](C(C)C)C(=O)N1C [Compound 10] | 14 | 9.7 | 1830 | 3710 | 3200 |  |
| C/C=C/C[C@@H](C)[C@@H](O)[C@H]1C(=O)N[C@@H](CCC)C(=O)N(C)[C@H](OCCN2CCOCC2)C(=O)N(C)[C@@H](CC(C)C)C(=O)N[C@@H](C(C)C)C(=O)N(C)[C@@H](CC(C)C)C(=O)N[C@@H](C)C(=O)N[C@H](C)C(=O)N(C)[C@@H](CC(C)C)C(=O)N(C)[C@@H](CC(C)C)C(=O)N(C)[C@@H](C(C)C)C(=O)N1C [Compound 8] (cyclo(A[dA][NMeL][NMeL][NMeV][MeBmt][Nva][X1][NMeL]V[NMeL])) |  |  | 636 | 7830 | 1610 |  |
| C/C=C/C[C@@H](C)[C@@H](O)[C@H]1C(=O)N[C@@H](CC)C(=O)N(C)[C@H](OCC(C)(C)N(C)C)C(=O)N(C)[C@@H](CC(C)C)C(=O)N[C@@H](C(C)C)C(=O)N(C)[C@@H](CC(C)C)C(=O)N[C@@H](C)C(=O)N[C@H](C)C(=O)N(C)[C@@H](CC(C)C)C(=O)N(C)[C@@H](CC(C)C)C(=O)N(C)[C@@H](C(C)C)C(=O)N1C [Compound 11] | 25 | 6 | 616 | 1620 | 3320 |  |
| C/C=C/C[C@@H](C)[C@@H](O)[C@H]1C(=O)N[C@@H](CC)C(=O)N(C)[C@H](OCC2(N(C)C)CC2)C(=O)N(C)[C@@H](CC(C)C)C(=O)N[C@@H](C(C)C)C(=O)N(C)[C@@H](CC(C)C)C(=O)N[C@@H](C)C(=O)N[C@H](C)C(=O)N(C)[C@@H](CC(C)C)C(=O)N(C)[C@@H](CC(C)C)C(=O)N(C)[C@@H](C(C)C)C(=O)N1C [Compound 12] | 6.5 | 6 |  |  |  |  |

Continued, in another order:

| Ki (Human CypA) [nM] | Ki (Human CypD) [nM] | IC50 [1] [nM] | IC50 [2] [nM] | EC50 (permeabilized HepG2; [3]) [nM] | Structure (SMILES) | EC50 (permeabilized HepG2; HepG2, read-out: Calcium Retention Capacity EC50 (nM)) [nM] |
| --- | --- | --- | --- | --- | --- | --- |
| 23 | 17 | > 10000 | > 10000 | > 10000 | C/C=C/C[C@@H](C)C(=O)[C@H]1C(=O)N[C@@H](C(C)C)C(=O)N(C)[C@H](OCCN(C)C)C(=O)N(C)[C@@H](CC(C)C)C(=O)N[C@@H](C(C)C)C(=O)N(C)[C@@H](CC(C)C)C(=O)N[C@@H](C)C(=O)N[C@H](C)C(=O)N(C)[C@@H](CC(C)C)C(=O)N(C)[C@@H](CC(C)C)C(=O)N(C)[C@@H](C(C)C)C(=O)N1C [Compound 5] (cyclo(A[dA][NMeL][NMeL][NMeV][NMeBmt(3-oxo)]V[X2][NMeL]V[NMeL])) |  |
| 90 | 150 | > 10000 | > 10000 | > 10000 | C/C=C/C[C@@H](C)C(=O)[C@H]1C(=O)N[C@@H](C(C)C)C(=O)N(C)[C@H](OCCN2CCOCC2)C(=O)N(C)[C@@H](CC(C)C)C(=O)N[C@@H](C(C)C)C(=O)N(C)[C@@H](CC(C)C)C(=O)N[C@@H](C)C(=O)N[C@H](C)C(=O)N(C)[C@@H](CC(C)C)C(=O)N(C)[C@@H](CC(C)C)C(=O)N(C)[C@@H](C(C)C)C(=O)N1C [Compound 6] (cyclo(A[dA][NMeL][NMeL][NMeV][NMeBmt(3-oxo)]V[X1][NMeL]V[NMeL])) |  |
|  |  | 789 | 3220 | 2370 | C/C=C/C[C@@H](C)[C@@H](O)[C@H]1C(=O)N[C@@H](CCC)C(=O)N(C)[C@H](OCCN(C)C)C(=O)N(C)[C@@H](CC(C)C)C(=O)N[C@@H](C(C)C)C(=O)N(C)[C@@H](CC(C)C)C(=O)N[C@@H](C)C(=O)N[C@H](C)C(=O)N(C)[C@@H](CC(C)C)C(=O)N(C)[C@@H](CC(C)C)C(=O)N(C)[C@@H](C(C)C)C(=O)N1C [Compound 7] (cyclo(A[dA][NMeL][NMeL][NMeV][MeBmt][Nva][X2][NMeL]V[NMeL])) |  |
|  |  | 1320 | 5510 | 946 | C/C=C/C[C@@H](C)[C@@H](O)[C@H]1C(=O)N[C@@H](C(C)C)C(=O)N(C)[C@H](OCCN(C)C)C(=O)N(C)[C@@H](CC(C)C)C(=O)N[C@@H](C(C)C)C(=O)N(C)[C@@H](CC(C)C)C(=O)N[C@@H](C)C(=O)N[C@H](C)C(=O)N(C)[C@@H](CC(C)C)C(=O)N(C)[C@@H](CC(C)C)C(=O)N(C)[C@@H](C(C)C)C(=O)N1C [Compound 3] (cyclo(A[dA][NMeL][NMeL][NMeV][MeBmt]V[X2][NMeL]V[NMeL])) |  |
| 50 | 78 | 5000 | > 10000 | > 10000 | C/C=C/C[C@@H](C)[C@@H](O)[C@H]1C(=O)NC([C@H](C)O)C(=O)N(C)[C@H](OCCN(C)C)C(=O)N(C)[C@@H](CC(C)C)C(=O)N[C@@H](C(C)C)C(=O)N(C)[C@@H](CC(C)C)C(=O)N[C@@H](C)C(=O)N[C@H](C)C(=O)N(C)[C@@H](CC(C)C)C(=O)N(C)[C@@H](CC(C)C)C(=O)N(C)[C@@H](C(C)C)C(=O)N1C (stereo partly drawn) [Compound 2] (cyclo(A[dA][NMeL][NMeL][NMeV][MeBmt][ξThr(3S)][X2][NMeL]V[NMeL])) |  |
| 11 | 8.2 | 2020 | 3880 | 468 | C/C=C/C[C@@H](C)[C@@H](O)[C@H]1C(=O)N[C@@H](CC)C(=O)N(C)[C@H](OCC/N=C(\C)N(C)C)C(=O)N(C)[C@@H](CC(C)C)C(=O)N[C@@H](C(C)C)C(=O)N(C)[C@@H](CC(C)C)C(=O)N[C@@H](C)C(=O)N[C@H](C)C(=O)N(C)[C@@H](CC(C)C)C(=O)N(C)[C@@H](CC(C)C)C(=O)N(C)[C@@H](C(C)C)C(=O)N1C [Compound 9] |  |
|  |  | 1320 | 4190 | 320 | C/C=C/C[C@@H](C)[C@@H](O)[C@H]1C(=O)N[C@@H](C(C)C)C(=O)N(C)[C@H](OCCN2CCOCC2)C(=O)N(C)[C@@H](CC(C)C)C(=O)N[C@@H](C(C)C)C(=O)N(C)[C@@H](CC(C)C)C(=O)N[C@@H](C)C(=O)N[C@H](C)C(=O)N(C)[C@@H](CC(C)C)C(=O)N(C)[C@@H](CC(C)C)C(=O)N(C)[C@@H](C(C)C)C(=O)N1C [Compound 4] (cyclo(A[dA][NMeL][NMeL][NMeV][MeBmt]V[X1][NMeL]V[NMeL])) |  |
